From ChEMBL document CHEMBL4513149, “CO-ADD screening of MMV (CH) - MMV compounds” (2021)
In brackets after ≈: the same amount, converted by molar mass. Structures can show the parent of a compound that is named as a salt.

Key:
[1] = test system: HEK293; test: cells; type: functional; settings: Homo sapiens, ATCC CRL1573, HEK293; ASSAY_TEST Inhibition of Cell Viability; detection method Resazurin; Fluorescence (ex560/em590); MEDIA DMEM with 10% FBS; plate type 384well; TC; CORNING #3712; time 18 hr
[2] = test system: Cryptococcus neoformans
Description: Antifungal activity against Cryptococcus neoformans H99 ATCC 208821 (CO-ADD:FG_002); MIC in YNB media using NBS plates, by Resazurin OD(600-570)

[3] = test system: Staphylococcus aureus; test: microbe, parasite or virus in culture; settings: ATCC 43300, 18 h, ASSAY_TEST Inhibition of Bacterial Growth, detection method Absorption (OD600), MEDIA CAMHB, plate type 384well, NBS, CORNING #3640
Description: (§1) Antibacterial activity against Staphylococcus aureus MRSA ATCC 43300 (CO-ADD:GP_020); MIC in CAMBH media, using NBS plates, by OD(600)

[4] = test system: Escherichia coli; test: microbe, parasite or virus in culture; settings: ATCC 25922, 18 h, ASSAY_TEST Inhibition of Bacterial Growth, detection method Absorption (OD600), MEDIA CAMHB, plate type 384well, NBS, CORNING #3640
Description: (§2) Antibacterial activity against Escherichia coli ATCC 25922 (CO-ADD:GN_001); MIC in CAMBH media using NBS plates, by OD(600)

[5] = test system: Klebsiella pneumoniae; test: microbe, parasite or virus in culture; settings: ATCC 700603, 18 h, ASSAY_TEST Inhibition of Bacterial Growth, detection method Absorption (OD600), MEDIA CAMHB, plate type 384well, NBS, CORNING #3640
Description: (§3) Antibacterial activity against Klebsiella pneumoniae MDR ATCC 70063 (CO-ADD:GN_003); MIC in CAMBH media using NBS plates, by OD(600)

[6] = test system: Pseudomonas aeruginosa; test: microbe, parasite or virus in culture; settings: ATCC 27853, 18 h, ASSAY_TEST Inhibition of Bacterial Growth, detection method Absorption (OD600), MEDIA CAMHB, plate type 384well, NBS, CORNING #3640
Description: (§4) Antibacterial activity against Pseudomonas aeruginosa ATCC 27853 (CO-ADD:GN_042); MIC in CAMBH media using NBS plates, by OD(600)

[7] = test system: Acinetobacter baumannii; test: microbe, parasite or virus in culture; settings: ATCC 19606, 18 h, ASSAY_TEST Inhibition of Bacterial Growth, detection method Absorption (OD600), MEDIA CAMHB, plate type 384well, NBS, CORNING #3640
Description: (§5) Antibacterial activity against Acinetobacter baumannii ATCC 19606 (CO-ADD:GN_034); MIC in CAMBH media using NBS plates, by OD600

[8] = test system: Candida albicans; test: microbe, parasite or virus in culture; settings: ATCC 90028, ASSAY_TEST Inhibition of Fungal Growth, detection method Absorption (OD530), plate type 384well, NBS, CORNING #3640
Description: (§6) Antifungal activity against Candida albicans ATCC 90028 (CO-ADD:FG_001); MIC in YNB media using NBS plates, by OD630

[9] = test system: Staphylococcus aureus; settings: ASSAY_TEST Inhibition of Bacterial Growth; detection method Absorption (OD600); MEDIA CAMHB; plate type 384well; NBS; CORNING #3640; time 18 hr
Description: as §1

[10] = test system: Escherichia coli; settings: ASSAY_TEST Inhibition of Bacterial Growth; detection method Absorption (OD600); MEDIA CAMHB; plate type 384well; NBS; CORNING #3640; time 18 hr
Description: as §2

[11] = test system: Klebsiella pneumoniae; settings: ASSAY_TEST Inhibition of Bacterial Growth; detection method Absorption (OD600); MEDIA CAMHB; plate type 384well; NBS; CORNING #3640; time 18 hr
Description: as §3

[12] = test system: Pseudomonas aeruginosa; settings: ASSAY_TEST Inhibition of Bacterial Growth; detection method Absorption (OD600); MEDIA CAMHB; plate type 384well; NBS; CORNING #3640; time 18 hr
Description: as §4

[13] = test system: Acinetobacter baumannii; settings: ASSAY_TEST Inhibition of Bacterial Growth; detection method Absorption (OD600); MEDIA CAMHB; plate type 384well; NBS; CORNING #3640; time 18 hr
Description: as §5

[14] = test system: Candida albicans; settings: ASSAY_TEST Inhibition of Fungal Growth; detection method Absorption (OD530); plate type 384well; NBS; CORNING #3640
Description: as §6

MIC [2] | MIC [3] | MIC [4] | MIC [5] | MIC [6] | MIC [7] | MIC [8] | MIC [9] | MIC [10] | MIC [11] | MIC [12] | MIC [13] | MIC [14] | SMILES | CC50 [1]
> 10 µM | ≤ 0.0781 µM | 10 µM (≈ 8.23 µg/mL) | > 10 µM | 5 µM (≈ 4.11 µg/mL) | > 10 µM | > 10 µM | – | – | – | – | – | – | CO[C@H]1/C=C/O[C@@]2(C)Oc3c(C)c(O)c4c(O)c(/c(=C/NN5CCN(C)CC5)c(O)c4c3C2=O)=N\C(=O)/C(C)=C\C=C/[C@H](C)[C@H](O)[C@@H](C)[C@@H](O)[C@@H](C)[C@H](OC(C)=O)[C@@H]1C | > 10 µM
> 10 µM | > 10 µM | > 10 µM | > 10 µM | > 10 µM | > 10 µM | > 10 µM | – | – | – | – | – | – | C[C@@H]1[C@H](O)[C@@H](C)/C=C/C=C/C=C/C=C/C=C/C=C/C=C/[C@H](O[C@@H]2O[C@H](C)[C@@H](O)[C@H](N)[C@@H]2O)C[C@@H]2O[C@](O)(C[C@@H](O)C[C@@H](O)[C@H](O)CC[C@@H](O)C[C@@H](O)CC(=O)O[C@H]1C)C[C@H](O)[C@H]2C(=O)O [AMPHOTERICIN B] | > 10 µM
> 10 µM | > 10 µM | > 10 µM | > 10 µM | > 10 µM | > 10 µM | > 10 µM | – | – | – | – | – | – | CC(C)(C)[C@H]1CC[C@H](CC2=C(O)C(=O)c3ccccc3C2=O)CC1 [BUPARVAQUONE] | > 10 µM
> 10 µM | 0.156 µM | 1.25 µM | > 10 µM | 0.156 µM | > 10 µM | > 10 µM | – | – | – | – | – | – | C[C@H]1c2cccc(O)c2C(=O)C2=C(O)[C@]3(O)C(=O)C(C(N)=O)=C(O)[C@@H](N(C)C)[C@@H]3[C@@H](O)[C@@H]21 [DOXYCYCLINE HYDROCHLORIDE] | > 10 µM
> 10 µM | > 10 µM | > 10 µM | > 10 µM | > 10 µM | > 10 µM | > 10 µM | – | – | – | – | – | – | Oc1c(I)cc(I)c2cccnc12 [IODOQUINOL] | > 10 µM
> 10 µM | – | – | – | – | – | – | 0.625 µM | <=0.0781 uM | 2.5 µM | 0.625 µM | 2.5 µM | >10 µM | C[C@H]1COc2c(N3CCN(C)CC3)c(F)cc3c(=O)c(C(=O)O)cn1c23.C[C@H]1COc2c(N3CCN(C)CC3)c(F)cc3c(=O)c(C(=O)O)cn1c23.O [LEVOFLOXACIN] | > 10 µM
> 10 µM | > 10 µM | > 10 µM | > 10 µM | > 10 µM | > 10 µM | > 10 µM | – | – | – | – | – | – | COC(=O)Nc1nc2cc(C(=O)c3ccccc3)ccc2[nH]1 [MEBENDAZOLE] | > 10 µM
> 10 µM | > 10 µM | > 10 µM | > 10 µM | > 10 µM | > 10 µM | > 10 µM | – | – | – | – | – | – | CCCCCCCCCCCCCCCCOP(=O)([O-])OCC[N+](C)(C)C [MILTEFOSINE] | > 10 µM
> 10 µM | > 10 µM | > 10 µM | > 10 µM | > 10 µM | > 10 µM | 0.312 µM | – | – | – | – | – | – | N=C(N)c1ccc(OCCCCCOc2ccc(C(=N)N)cc2)cc1 [PENTAMIDINE ISETHIONATE] | > 10 µM
> 10 µM | – | – | – | – | – | – | 10 µM | >10 µM | >10 µM | >10 µM | >10 µM | >10 µM | COc1cc(NC(C)CCCN)c2ncccc2c1.O=P(O)(O)O.O=P(O)(O)O (stereo not drawn) [PRIMAQUINE PHOSPHATE] | > 10 µM
> 10 µM | 5 µM (≈ 1.77 µg/mL) | > 10 µM | > 10 µM | > 10 µM | > 10 µM | > 10 µM | – | – | – | – | – | – | CC(=O)NC[C@H]1CN(c2ccc(N3CCSCC3)c(F)c2)C(=O)O1 [SUTEZOLID] | > 10 µM

SMILES | MIC [2] | MIC [3] | MIC [4] | MIC [5] | MIC [6] | MIC [7] | MIC [8] | MIC [9] | MIC [10] | MIC [11] | MIC [12] | MIC [13] | MIC [14] | CC50 [1]
CO/C=C(/C(=O)OC)c1ccccc1Oc1cc(Oc2ccccc2C#N)ncn1 [AZOXYSTROBIN] | > 10 µM | > 10 µM | > 10 µM | > 10 µM | > 10 µM | > 10 µM | 0.625 µM (≈ 0.252 µg/mL) | – | – | – | – | – | – | > 10 µM
CC(C)(C)C(O)C(Oc1ccc(-c2ccccc2)cc1)n1cncn1 (stereo not drawn) [BITERTANOL] | 1.25 µM (≈ 0.422 µg/mL) | > 10 µM | > 10 µM | > 10 µM | > 10 µM | > 10 µM | 5 µM (≈ 1.69 µg/mL) | – | – | – | – | – | – | > 10 µM
CC1COC(Cn2cncn2)(c2ccc(Oc3ccc(Cl)cc3)cc2Cl)O1 (stereo not drawn) [DIFENOCONAZOLE] | 0.625 µM (≈ 0.254 µg/mL) | > 10 µM | > 10 µM | > 10 µM | > 10 µM | > 10 µM | 0.625 µM (≈ 0.254 µg/mL) | – | – | – | – | – | – | > 10 µM
CC[C@@H]([C@H](C)O)n1ncn(-c2ccc(N3CCN(c4ccc(OC[C@@H]5CO[C@@](Cn6cncn6)(c6ccc(F)cc6F)C5)cc4)CC3)cc2)c1=O [POSACONAZOLE] | 1.25 µM (≈ 0.876 µg/mL) | > 10 µM | > 10 µM | > 10 µM | > 10 µM | > 10 µM | 0.156 µM (≈ 0.11 µg/mL) | – | – | – | – | – | – | > 10 µM
CCc1nn(C)c(C(=O)NCc2ccc(Oc3ccc(C)cc3)cc2)c1Cl [TOLFENPYRAD] | 10 µM (≈ 3.84 µg/mL) | > 10 µM | > 10 µM | > 10 µM | > 10 µM | > 10 µM | > 10 µM | – | – | – | – | – | – | > 10 µM
